According to patent EP1495132B1, “SYSTEMIC MARKER FOR MONITORING ANTI-INFLAMMATORY AND ANTIOXIDANT ACTIONS OF THERAPEUTIC AGENTS” (priority 2002, dated 2003):
“And” between values parts separate entries of the source, which are not always exact repeats. Equal values may be shown once.

Key:
human MPO = target: T1, human MPO (Homo sapiens, UniProt P05164); assay: MPO-dependent initiation of lipid peroxidation of endogenous plasma lipids (isolated MPO plus glucose/glucose oxidase); type: biochemical; details: 30 nM MPO, G/GO, 50% plasma, 12 h, 37° C; 1 mM NaN3, 300 nM catalase, 200 nM SOD, 100 µM methionine, 100 µM ascorbate
T1 construct: from tissue; host or cells: human leukocytes, for the MPO standard of the ELISA; the lipid peroxidation text only says 'isolated'/'purified' and cites the literature
Description: Neutrophils (1×10^6/ml) isolated from normal and MPO-deficient individuals were incubated at 37° C in HBSS supplemented with DTPA (100 µM, pH 7.0) and fresh human plasma (50% v/v). Cells were activated by addition of phorbol myristate acetate (PMA, 200 nM) and incubated for 2 h (Complete System). The content of 9-H(P)ODE and 9-H(P)ETE formed within endogenous plasma lipids were then determined by LC/ESI/MS/MS. Where indicated, human MPO (30 nM) was added to reaction mixtures. Data represent the mean ±SD of triplicate determinations. Each bar within a cluster for a given condition represents results obtained from independent experiments performed with neutrophil preparations from a distinct donor. PMN(MPO+), neutrophils isolated from normal subjects; PMN(MPO-), neutrophils isolated from MPO-deficient subjects. • Figs. 5(A-B) are graphs showing the characterization of neutrophil-dependent initiation of lipid peroxidation of endogenous plasma lipids. […] The content of 9-H(P)ODE and 9-H(P)ETE formed within endogenous plasma lipids were then determined by LC/ESI/MS/MS. […] The content of 9-H(P)ODE and 9-H(P)ETE formed within endogenous plasma lipids were then determined by LC/ESI/MS/MS. […] The contents of the indicated oxidized PC species were determined in native LDL and LDL oxidized by the MPO-H2O2-NO2 system (NO2-LDL) using LC/ESI/MS/MS. […]

Human neutrophils = assay: Neutrophil-dependent initiation of lipid peroxidation of endogenous plasma lipids (PMA-activated neutrophils, LC/ESI/MS/MS); type: cell-based; details: 50% plasma, 2 h, 37° C, 1 mM NaN3, 300 nM catalase, 100 µM methionine, 100 µM ascorbate, 10 µg/ml SOD
Description: Neutrophils (1×10^6/ml) isolated from normal and MPO-deficient individuals were incubated at 37° C in HBSS supplemented with DTPA (100 µM, pH 7.0) and fresh human plasma (50% v/v). Cells were activated by addition of phorbol myristate acetate (PMA, 200 nM) and incubated for 2 h (Complete System). The content of 9-H(P)ODE and 9-H(P)ETE formed within endogenous plasma lipids were then determined by LC/ESI/MS/MS. Where indicated, human MPO (30 nM) was added to reaction mixtures. Data represent the mean ±SD of triplicate determinations. Each bar within a cluster for a given condition represents results obtained from independent experiments performed with neutrophil preparations from a distinct donor. PMN(MPO+), neutrophils isolated from normal subjects; PMN(MPO-), neutrophils isolated from MPO-deficient subjects. • Figs. 5(A-B) are graphs showing the characterization of neutrophil-dependent initiation of lipid peroxidation of endogenous plasma lipids. Neutrophils (1×10^6/ml) isolated from normal subjects (PMN) were incubated at 37° C in HBSS supplemented with DTPA (100 µM, pH 7.0) and fresh human plasma (50% v/v). Cells were activated by addition of phorbol myristate acetate (PMA, 200 nM) and then incubated for 2 h (Complete System). The content of 9-H(P)ODE and 9-H(P)ETE formed within endogenous plasma lipids were then determined by LC/ESI/MS/MS. Additions or deletions to the Complete System were as indicated. The final concentrations of additions to the Complete System were 30 nM human MPO, 1 mM NaN3, 300 nM catalase (Cat), 300 nM heat inactivated-catalase (hiCat), 100 µM methionine (Met), 100 µM ascorbate and 10 µg/ml superoxide dismutase (SOD). […] The content of 9-H(P)ODE and 9-H(P)ETE formed within endogenous plasma lipids were then determined by LC/ESI/MS/MS. […] The contents of the indicated oxidized PC species were determined in native LDL and LDL oxidized by the MPO-H2O2-NO2 system (NO2-LDL) using LC/ESI/MS/MS. […]

[1] = test system: MPO and multiple distinct oxidation products formed by MPO; assay: Example 14: plasma MPO and oxidation products, ARB therapy; type: in vivo, human; details: 16 weeks of losartan 25 mg PO QD, n=16
Description: Angiotensin receptor blocking agents are a new therapy used for treatment of hypertension. They act upon the same biochemical axis as ACEI. Accordingly, they promote clinical benefits beyond those linked to blood pressure reduction - those related to presumed anti-inflammatory and antioxidant actions. However, no means for objectively monitoring these effects have been available. We hypothesized that monitoring levels of MPO and its oxidation products might serve as a way of quantifying the anti-inflammatory and antioxidant effects of ARBs. […] These studies underscore the potential utility of MPO and its oxidation products for monitoring systemic antioxidant and anti-inflammatory effects of therapeutic interventions.

[2] = test system: MPO and multiple distinct oxidation products formed by MPO; assay: Example 13: plasma MPO and oxidation products, ACEI therapy; type: in vivo, human; details: 16 weeks of lisinopril 20 mg PO QD, n=9
Description: Subjects (n=9) had plasma drawn at baseline, and then 16 weeks following therapy with lisinopril (Zestril, 20 mg PO QD). Plasma levels of MPO, protein-bound nitrotyrosine, chlorotyrosine, dityrosine, and 9-H(P)ETE and F2Isoprostantes were monitored.

[3] = test system: MPO-generated markers of protein and lipid oxidation; assay: Example 10: MPO-generated oxidation markers and hs-CRP after 12 weeks of atorvastatin (Figs. 14, 15); type: in vivo, human; details: baseline vs 12 weeks of atorvastatin 10 mg PO QHS
MPO = assay: Example 15: plasma levels of MPO, statin therapy; type: in vivo, human; details: n=27
[4] = test system: oxidation products produced by myeloperoxidase and nitric oxide-derived oxidants; assay: Prospective intervention study: plasma protein-bound tyrosine oxidation products at baseline and after 12 weeks of atorvastatin; type: in vivo, human
Description: The population consisted of a consecutive sample of patients recruited from the Preventive Cardiology Clinic at the Cleveland Clinic Foundation from June 2001 until January 2002 who were eligible and consented to participate in the study. Patients 21 years of age and older without clinical evidence of CAD and with low-density lipoprotein cholesterol (LDL-C) levels ≥ 130mg/dL, despite at least 6-8 weeks of therapeutic lifestyle interventions, were eligible to participate in the study. Briefly at initial screening, a detailed medical history was obtained, a thorough physical examination was performed, and a fasting lipoprotein profile was obtained. Patients potentially eligible for the study received counseling on nutritional and exercise interventions. If after 6-8 weeks LDL-C remained ≥130mg/dL, patients were eligible for enrollment in the study. […] Patient with active liver disease or renal insufficiency defined as serum creatine levels of 1.8 mg per deciliter or greater were excluded. […] All patients gave written informed consent, and the Institutional Review Board at the Cleveland Clinic Foundation approved the study protocol.
Blood samples were collected into serum separator tubes (Case-control study) or EDTA tubes (Intervention study) from overnight fasted patients. Samples were centrifuged at 3500 rpm for 10 minutes, plasma/serum recovered, and aliquots stored at -80°C until analysis. Personnel blinded to clinical data performed all laboratory measurements. Lipoprotein/lipid profiles and high sensitivity C-reactive protein (CRP) measurements were performed using CDC standardized assays.
Protein-bound nitrotyrosine levels were determined by stable isotope dilution liquid chromatography-electrospray ionization tandem mass spectrometry based methods using an ion trap mass spectrometer (LCQ Deca, ThermoFinigann, San Jose, CA). […] Nitrotyrosine content in samples is expressed as the mole ratio between nitrotyrosine and the precursor amino acid tyrosine. […]

[5] = test system: oxidation products produced by myeloperoxidase and nitric oxide-derived oxidants; assay: as above; type: in vivo, human; remark: listed apart in the source
[6] = test system: lipid levels and high-sensitivity CRP
Description: Wilcoxon rank-sum test was used to analyze the differences between measurements at baseline and 12 weeks. […] Approximate 95% confidence intervals were found using Fisher's r-to-z transform. Multiple regression analyses were performed to determine factors associated with changes in nitrotyrosine levels.
We performed a prospective, open-label study. The study cohort consisted of a consecutive sample of patients (n=35) recruited from the Preventive Cardiology Clinic at the Cleveland Clinic Foundation. Patients 21 years of age and older without clinical evidence of coronary artery disease and with LDL cholesterol (LDL-C) levels 130 mg per deciliter or greater, despite at least 6-8 weeks of therapeutic lifestyle interventions, were eligible to participate in the study. Briefly, at initial screening, a detailed medical history was obtained, a thorough physical examination was performed, and a fasting lipoprotein profile was obtained. Patients potentially eligible for the study received counseling on nutritional and exercise interventions. If after 6-8 weeks LDL-C remained above 130 mg/dL, patients were eligible for enrollment in the study. […] Fasting morning plasma samples were collected prior to initiation of therapy (baseline), and following 12 weeks of therapy. Patients with active liver disease or renal insufficiency defined as a serum creatinine level of 1.8 mg per deciliter or greater were excluded. […] All patients gave written informed consent, and the Institutional Review Board at the Cleveland Clinic Foundation approved the study protocol.
Blood samples were collected into EDTA tubes from fasting patients. Samples were centrifuged at 3500 rpm for 10 minutes at 4°C, and stored under conditions to minimize artificial oxidation (i.e., with antioxidant cocktail, under inert atmosphere). Briefly, plasma was removed and allocated into tubes containing butylated hydroxytoluene (100µM final) and diethylenetriaminepentaacetic acid (100µM final) overlaid with argon and stored at -80°C until analysis. Standard methods were used to measure lipid levels and high-sensitivity CRP.
Data are presented as mean ± SD, and significance level was set at p < 0.05. Wilcoxon rank-sum test was used to analyze the differences between NO2Tyr, diTyr, and CRP at baseline and 12 weeks, as they were not normally distributed.

[7] = n=35, LDL cholesterol ≥ 130mg/dL
[8] = baseline to 12 weeks, atorvastatin 10 mg per day, n = 35
[9] = plasma protein-bound, 12 Weeks of atorvastatin 10 mg orally per day, n = 35, mean ± SD
[10] = reduction, baseline to 12 weeks, atorvastatin 10 mg per day, given unsigned
[11] = reduction, baseline to 12 weeks, atorvastatin 10 mg per day, given unsigned, not significant
[12] = 12 Weeks of atorvastatin 10 mg orally per day, n = 35, mean ± SD

T1 sequence (P05164 279-745 limits assumed): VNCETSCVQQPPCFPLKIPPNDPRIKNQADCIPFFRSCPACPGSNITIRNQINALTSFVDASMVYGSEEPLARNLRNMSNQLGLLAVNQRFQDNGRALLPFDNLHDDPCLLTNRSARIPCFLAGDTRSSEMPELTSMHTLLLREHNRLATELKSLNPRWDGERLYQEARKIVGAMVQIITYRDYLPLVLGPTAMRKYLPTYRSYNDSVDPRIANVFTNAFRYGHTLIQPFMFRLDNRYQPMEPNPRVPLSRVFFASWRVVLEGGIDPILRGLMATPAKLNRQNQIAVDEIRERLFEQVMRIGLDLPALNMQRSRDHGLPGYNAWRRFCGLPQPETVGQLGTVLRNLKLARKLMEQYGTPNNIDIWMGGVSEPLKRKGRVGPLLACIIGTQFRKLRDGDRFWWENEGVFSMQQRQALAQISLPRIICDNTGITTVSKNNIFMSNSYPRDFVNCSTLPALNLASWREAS
T1 sequence (P05164 165-273 limits assumed): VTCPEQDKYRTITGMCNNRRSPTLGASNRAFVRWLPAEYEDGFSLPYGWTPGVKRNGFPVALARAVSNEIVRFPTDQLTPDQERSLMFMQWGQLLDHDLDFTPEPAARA

azide
MPO-dependent lipid oxidation in plasma (9-H(P)ODE and 9-H(P)ETE) (human MPO): inhibited
neutrophil-dependent peroxidation of endogenous plasma lipids (9-H(P)ODE and 9-H(P)ETE) (Human neutrophils): complete inhibition

CCCCc1nc(Cl)c(CO)n1Cc1ccc(-c2ccccc2-c2nn[nH]n2)cc1 [losartan]
Nitrotyrosine ([1]; plasma protein-bound): 8.1 umol/mol
9-H(P)ETE ([1]; plasma): 0.27 mmol/mol
Chlorotyrosine ([1]; plasma): 14.3 umol/mol
Dityrosine ([1]; plasma): 28.5 umol/mol
F2Isoprostane ([1]; plasma): 0.68 mmol/mol
MPO ([1]; plasma): 9.9 ng/mL

CSCC[C@H](N)C(=O)O [methionine]
MPO-dependent lipid oxidation in plasma (9-H(P)ODE and 9-H(P)ETE) (human MPO): not affected
neutrophil-dependent peroxidation of endogenous plasma lipids (9-H(P)ODE and 9-H(P)ETE) (Human neutrophils): failed to attenuate

O[C@H](CS)[C@H](O)CS (racemic) [dithiothreitol]
neutrophil-dependent peroxidation of endogenous plasma lipids (9-H(P)ODE and 9-H(P)ETE) (Human neutrophils): failed to attenuate

NCCCC[C@H](N[C@@H](CCc1ccccc1)C(=O)O)C(=O)N1CCC[C@H]1C(=O)O [lisinopril]
Nitrotyrosine ([2]; plasma protein-bound): 10.3 µmol/mol
9-H(P)ETE ([2]; plasma): 0.21 mmol/mol
Chlorotyrosine ([2]; plasma): 15.0 µmol/mol
Dityrosine ([2]; plasma): 24.1 µmol/mol
F2Isoprostane ([2]; plasma): 0.72 mmol/mol
MPO ([2]; plasma): 8.8 ng/mL

CC(C)c1c(C(=O)Nc2ccccc2)c(-c2ccccc2)c(-c2ccc(F)cc2)n1CC[C@@H](O)C[C@@H](O)CC(=O)O [Atorvastatin, atorvastatin]
reduction in dityrosine [3, 7]: 30%
reduction in nitrotyrosine [3, 7]: 24%
decrease in hs-CRP ([3]; n=35, failed to reach significance): 11%
MPO (MPO; plasma, 16 weeks of Atorvastatin 10 mg PO QD): 17.3 ± 4.8 ng/mL
MPO, % change (MPO; reduction, baseline to 16 weeks of Atorvastatin 10 mg PO QD, given unsigned): 12.2%
Nitrotyrosine, absolute change [4, 8]: -4 µmol/mol tyrosine
Nitrotyrosine [4, 9]: 11 ± 5 µmol/mol tyrosine
Nitrotyrosine, % change [4, 10]: 25%
Chlorotyrosine, absolute change [5, 8]: -6 µmol/mol tyrosine
Dityrosine, absolute change [5, 8]: -11 µmol/mol tyrosine
ortho-tyrosine, absolute change [5, 8]: -8 µmol/mol tyrosine
Chlorotyrosine [5, 9]: 13 ± 4 µmol/mol tyrosine
Dityrosine [5, 9]: 23 ± 8 µmol/mol tyrosine
ortho-tyrosine [5, 9]: 81 ± 40 µmol/mol tyrosine
Chlorotyrosine, % change [5, 10]: 30%
Dityrosine, % change [5, 10]: 32%
ortho-tyrosine, % change [5, 11]: 9%
Apolipoprotein B-100 [6, 12]: 96 ± 21 mg/dL
C-reactive protein [6, 12]: 0.23 ± 0.33 mg/dL and 0.23 mg/dL
Total cholesterol level [6, 12]: 190 ± 28 mg/dL
Apolipoprotein B-100, absolute change [6, 8]: -39 mg/dL
C-reactive protein, absolute change [6, 8]: -0.2 mg/dL
Total cholesterol, absolute change [6, 8]: -63 mg/dL
Triglycerides, absolute change [6, 8]: -14 mg/dL
Triglycerides ([6]; fasting, 12 Weeks of atorvastatin 10 mg orally per day, n = 35, mean ± SD): 132 ± 81 mg/dL
Apolipoprotein B-100, % change [6, 10]: 29%
Total cholesterol, % change [6, 10]: 25%
C-reactive protein, % change [6, 11]: 11%
Triglycerides, % change [6, 11]: 10%
